Source: patent publication US20090149662A1, “PROCESSES FOR PREPARING ZAFIRLUKAST” (priority 2007, published 2009)

Experiment: Stability studies of amorphous zafirlukast under storage/stress conditions (XRD)
Assay type: physicochemical
Excerpt: A sample of amorphous zafirlukast prepared using the above process was subjected to different conditions to determine the stability of the mixture under stress conditions.
The sample was packed in a clear polyethylene bag, tied with a tag, placed in a black polyethylene bag along with a silica pouch, which was filled with nitrogen, then sealed in a triple laminated bag, and finally sealed and stored in an HDPE drum.

Solid-form stability (XRD spectra) after storage (Long-term storage for 3 months, packed in polyethylene bags with silica pouch under nitrogen, triple laminated bag, HDPE drum): No change in XRD spectra | Solid-form stability (XRD spectra) after storage (Storage at 25 + 5 C. and 60 + 5% RH, same packing): No change in XRD spectra | Solid-form stability (XRD spectra) after storage (Storage at 40 + 5 C. and 70 + 5% RH, same packing): No change in XRD spectra
Substance: 4-(5-cyclopentyloxy-carbonylamino-1-methyl-indol-3-ylmethyl)-3-methoxy-N-O-tolylsulfonylbenzamide [Amorphous form]
